Earlier results, collected in patent US20080187585A1, “Prolonged-Release Compositions Comprising Torasemide and a Matrix-Forming Polymer” (FERRER INTERNACIONAL S.A., priority 2004, published 2008).

How the values were obtained:
[1] = not given; remark: listed apart in the source

bioavailability (after oral administration): 80-90% | kinetics (oral administration): linear | elimination half-life (t1/2) (oral administration, man): 3 to 4 h | tmax (time to maximum plasma concentration) (oral administration, man): approximately 1 hour
Structure (SMILES): Cc1cccc(Nc2ccncc2S(=O)(=O)NC(=O)NC(C)C)c1 [torasemide, Torasemide]
time of maximal effects on urine and electrolytes excretions ([1]; after oral administration): approximately 2 hours | dose-response relationship for urinary volume ([1]; doses from 2.5 to 20 mg): linear dose-response relationship
